From patent publication US20250092065A1, “2-(INDAZOL-5-YL)-6-(PIPERIDIN-4-YL)-1,7-NAPHTHYRIDINE DERIVATIVES AND RELATED COMPOUNDS AS MODULATORS FOR SPLICING NUCLEIC ACIDS AND FOR THE TREATMENT OF PROLIFERATIVE DISEASES” (REMIX THERAPEUTICS INC., priority 2022, published 2025)
Where two headings read alike, the source gives them in different places.

Columns and labels:
[1] = tested on: MYB; assay: HiBiT protein abundance assay, MYB (K562 HiBiT knock-in); assay type: cell-based, human; details: HiBiT knock-in K562 cells, 24 hours, top dose 10 μM
Outline: (§1)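 Steps: seed HiBiT knock-in K562 cells; add compound in 10-point 3-fold series from 10 μM final; incubate 24 h, 37 °C; add lytic HiBiT reagent, shake 5 min, wait 10 min; read luminescence. Normalize to parental K562 and DMSO controls, fit 4PL, take IC50.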

[2] = tested on: HTT; assay: HiBiT protein abundance assay, HTT (K562 HiBiT knock-in); assay type: cell-based, human; details: HiBiT knock-in K562 cells, 24 hours, top dose 10 μM
Outline: as §1

[3] = tested on: SMN2 mRNA; assay: RT-qPCR splicing assay, SMN2 mRNA; assay type: cell-based, human; details: Homo sapiens, canonical junction qPCR panel, Table 4; read-out: SMN2 IC50 (decrease in CJ mRNA levels)
Outline: (§2)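 Junction-specific RT-qPCR read-out: CJ and AJ isoform levels, housekeeper-normalized (GAPDH/GUSB/PPIA), ΔΔCt vs DMSO, converted to RQ then % response. Cells: A673 (DMEM/10% FBS, adhered 24 h) or K562 (IMDM/10% FBS). Compound 11-pt 3-fold, top 10 uM, 24 h, 37 °C.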

[4] = tested on: HTT mRNA; assay: RT-qPCR splicing assay, HTT mRNA canonical (CJ) and alternative (AJ) junction; assay type: cell-based, human; details: Homo sapiens; for AC50: HTT alternative junction mRNA, read-out: HTT AJ (increase in AJ mRNA, AC50)
Outline: as §2

[5] = tested on: MYB mRNA; assay: RT-qPCR splicing assay, MYB mRNA canonical (CJ) and alternative (AJ) junction; assay type: cell-based, human; details: Homo sapiens; for AC50: MYB alternative junction mRNA, read-out: MYB AJ (increase in AJ mRNA, AC50)
Outline: as §2

[6] = tested on: K562 cells; assay: Cell Titer Glo 2.0 cell viability (toxicity) assay, K562; details: 500 cells/well, 72 hours
[7] = tested on: Target C; assay: HiBiT protein abundance assay, Target C (K562 HiBiT knock-in); assay type: cell-based, human; details: HiBiT knock-in K562 cells, 24 hours, top dose 10 μM
Outline: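 K562 HiBiT knock-in cells (10000/well) were treated 24 h at 37° C with a 10-point 3-fold dilution series (top 10 μM final, ≤0.25% DMSO). HiBiT luminescence was read after lytic LgBiT detection. Percent response used unmodified K562 and DMSO-treated knock-in controls, and IC50 came from a four-parameter fit at 50% of untreated.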

[8] = HTT canonical junction mRNA, RT-qPCR, read-out: HTT CJ (decrease in CJ mRNA levels, IC50)
[9] = canonical junction qPCR panel, Table 4, read-out: HTT IC50 (decrease in CJ mRNA levels)
[10] = MYB canonical junction mRNA, RT-qPCR, read-out: MYB CJ (decrease in CJ mRNA levels, IC50)
[11] = canonical junction qPCR panel, Table 4, read-out: MYB IC50 (decrease in CJ mRNA levels)

Row | SMILES | IC50 [1] [µM] | IC50 [2] [µM] | IC50 [3] [µM] | IC50 [4, 8] [µM] | IC50 [4, 9] [µM] | IC50 [5, 10] [µM] | IC50 [5, 11] [µM] | IC50 [7] [µM] | AC50 ([4]; RT-qPCR) [µM] | AC50 ([5]; RT-qPCR) [µM] | Effect of Exemplary Compounds on Cell Viability, K562 [6]
1 | Cn1cc2cc(-c3ccc4nc(N5CC[C@H](NC6CC6)C5)ccc4n3)c(O)cc2n1 [Compound 197] | 0.1 to 1 | < 0.1 | < 0.1 | < 0.1 | < 0.1 | 0.1 to 1 | 0.1 to 1 | 0.1 to 1 | < 0.1 | 0.1 to 1 | B (B represents 100-1000 nM)
2 | Cn1cc2cc(-c3ccc4nc(N5CC[C@@H](NC6CC6)C5)ccc4n3)c(O)cc2n1 [Compound 198] | < 0.1 | < 0.1 | < 0.1 | < 0.1 | < 0.1 | < 0.1 | < 0.1 | < 0.1 | < 0.1 | < 0.1 | B (B represents 100-1000 nM)
3 | Cn1cc2nc(-c3ccc4nc(C5CCNCC5)ccc4n3)ccc2n1 [Compound 199] | 0.1 to 1 | 0.1 to 1 | 0.1 to 1 | 0.1 to 1 | 0.1 to 1 | 0.1 to 1 | 0.1 to 1 | 0.1 to 1 | 0.1 to 1 | 0.1 to 1 | B (B represents 100-1000 nM)
4 | Cn1cc2cc(-c3ccc4nc(C5CCNCC5)ccc4n3)ncc2n1 [Compound 200] | 1 to 10 | 1 to 10 | 1 to 10 | 1 to 10 | 1 to 10 | 1 to 10 | 1 to 10 | 1 to 10 | 1 to 10 | 1 to 10 | C (C represents 1000-9999 nM)
5 | Cc1cn2cc(-c3ccc4nc(N5CCC(NC(C)(C)C)C5)ccc4n3)cc(C)c2n1 (stereo not shown) [Compound 201] | 0.1 to 1 | < 0.1 | < 0.1 | 0.1 to 1 | 0.1 to 1 | 0.1 to 1 | 0.1 to 1 | 0.1 to 1 | 0.1 to 1 | 0.1 to 1 | B (B represents 100-1000 nM)
6 | Cn1cc2cc(-c3ccc4nc(N5CCC(NC(C)(C)C)C5)ccc4n3)c(O)c(F)c2n1 (stereo not shown) [Compound 202] | < 0.1 | < 0.1 | < 0.1 | < 0.1 | < 0.1 | < 0.1 | < 0.1 | < 0.1 | < 0.1 | < 0.1 | A (A represents <100 nM)
7 | Cc1cn2nc(-c3ccc4nc(N5CCC(NC(C)(C)C)C5)ccc4n3)c(O)c2c(C)n1 (stereo not shown) [Compound 203] | < 0.1 | < 0.1 | < 0.1 | < 0.1 | < 0.1 | 0.1 to 1 | 0.1 to 1 | < 0.1 | < 0.1 | 0.1 to 1 | B (B represents 100-1000 nM)
8 | Cn1cc2cc(-c3ccc4nc(C5CCNCC5)ccc4n3)c(C#N)cc2n1 [Compound 204] | 1 to 10 | 1 to 10 | 0.1 to 1 | 1 to 10 | 1 to 10 | 1 to 10 | 1 to 10 | 1 to 10 | 1 to 10 | 1 to 10 | D (D represents greater than 10 μM in K562 cells)
9 | Cn1cc2nc(-c3ccc4nc(C5CCNCC5)ccc4n3)c(F)cc2n1 [Compound 205] | 1 to 10 | 1 to 10 | 1 to 10 | 1 to 10 | 1 to 10 | 1 to 10 | 1 to 10 | 1 to 10 | 1 to 10 | 1 to 10 | C (C represents 1000-9999 nM)
10 | Cc1cn2cc(-c3ccc4nc(N5CCC(NC(C)(C)C)C5)ccc4n3)nc(C)c2n1 (stereo not shown) [Compound 206] | 1 to 10 | 1 to 10 | 1 to 10 | 1 to 10 | 1 to 10 | 1 to 10 | 1 to 10 | 1 to 10 | 1 to 10 | 1 to 10 | C (C represents 1000-9999 nM)
11 | Cn1cc2nc(-c3ccc4nc(N5CCC(NC(C)(C)C)C5)ccc4n3)c(F)cc2n1 (stereo not shown) [Compound 207] | 1 to 10 | 1 to 10 | 1 to 10 | 1 to 10 | 1 to 10 | 1 to 10 | 1 to 10 | 1 to 10 | 1 to 10 | 1 to 10 | C (C represents 1000-9999 nM)

More lines, main results first:

Row | IC50 [1] [µM] | IC50 [2] [µM] | IC50 [3] [µM] | IC50 [4, 8] [µM] | IC50 [4, 9] [µM] | IC50 [5, 10] [µM] | IC50 [5, 11] [µM] | IC50 [7] [µM] | SMILES | AC50 ([4]; RT-qPCR) [µM] | AC50 ([5]; RT-qPCR) [µM] | Effect of Exemplary Compounds on Cell Viability, K562 [6]
12 | > 10 | 1 to 10 | 1 to 10 | > 10 | > 10 | > 10 | > 10 | > 10 | Cc1nc(-c2ccc3nc(N4CCC(NC(C)(C)C)C4)ccc3n2)cc2cn(C)nc12 (stereo not shown) [Compound 208] | > 10 | 1 to 10 | D (D represents greater than 10 μM in K562 cells)
13 | 1 to 10 | < 0.1 | < 0.1 | < 0.1 | < 0.1 | < 0.1 | < 0.1 | < 0.1 | Cc1nc2cc(O)c(-c3ccc4nc(N5CC[C@H](NC(C)(C)C)C5)ccc4n3)cc2o1 [Compound 209] | < 0.1 | < 0.1 | C (C represents 1000-9999 nM)
14 | < 0.1 | < 0.1 | < 0.1 | 0.1 to 1 | 0.1 to 1 | 1 to 10 | 1 to 10 | < 0.1 | Cc1nc2cc(O)c(-c3ccc4nc(N5CC[C@@H](NC(C)(C)C)C5)ccc4n3)cc2o1 [Compound 210] | 1 to 10 | 1 to 10 | A (A represents <100 nM)
15 | < 0.1 | < 0.1 | < 0.1 | < 0.1 | < 0.1 | < 0.1 | < 0.1 | < 0.1 | Cc1nc2cc(O)c(-c3ccc4nc(N5CC[C@H](NC6CC6)C5)ccc4n3)cc2o1 [Compound 211] | < 0.1 | < 0.1 | B (B represents 100-1000 nM)
16 | 0.1 to 1 | < 0.1 | < 0.1 | < 0.1 | < 0.1 | 0.1 to 1 | 0.1 to 1 | 0.1 to 1 | Cc1nc2cc(O)c(-c3ccc4nc(N5CC[C@@H](NC6CC6)C5)ccc4n3)cc2o1 [Compound 212] | < 0.1 | 0.1 to 1 | B (B represents 100-1000 nM)
17 | < 0.1 | < 0.1 | < 0.1 | < 0.1 | < 0.1 | < 0.1 | < 0.1 | < 0.1 | Cc1nc2c(C)c(O)c(-c3ccc4nc(N5CC[C@@H](NC(C)(C)C)C5)ccc4n3)cc2o1 [Compound 215] | < 0.1 | < 0.1 | A (A represents <100 nM)
18 | 1 to 10 | > 10 | 0.1 to 1 | > 10 | > 10 | > 10 | > 10 | > 10 | Cn1cc2cc(-c3cc4ccc(N5CCC(NC(C)(C)C)C5)nc4cn3)c(O)cc2n1 (stereo not shown) [Compound 218] | > 10 | 1 to 10 | C (C represents 1000-9999 nM)
19 | < 0.1 | < 0.1 | < 0.1 | < 0.1 | < 0.1 | < 0.1 | < 0.1 | < 0.1 | Cn1cc2cc(-c3ccc4nc(N5CC[C@@H](NC6(C)CC6)C5)ccc4n3)c(O)cc2n1 [Compound 220] | < 0.1 | < 0.1 | A (A represents <100 nM)
20 | < 0.1 | < 0.1 | < 0.1 | < 0.1 | < 0.1 | < 0.1 | < 0.1 | < 0.1 | Cn1cc2cc(-c3ccc4nc(N5CC[C@H](NC6(C)CC6)C5)ccc4n3)c(O)cc2n1 [Compound 221] | < 0.1 | < 0.1 | B (B represents 100-1000 nM)
